Experimental data as given in patent publication US20230312639A1, “GPER PROTEOLYTIC TARGETING CHIMERAS” (University of Iowa Research Foundation, priority 2020, published 2023).
“Also recorded” adds a separate entry of the source.

Experiments:
native GPER = target: T1, native GPER (Homo sapiens, UniProt Q99527); assay: Surface GPER immunostaining in human breast cancer cells (SKBR3, HCC-1806); assay type: cell-based
T1 construct: Similar results were obtained for native GPER in her2+ and TNBC breast cancer cells; endogenous in cells; host or cells: SKBR3 and HCC-1806 human breast cancer cells
Procedure: FIG. 4. PROTAC prototype Ul-EP001 reduces surface GPER. Similar results were obtained for native GPER in her2+ and TNBC breast cancer cells.
FIG. 18. […] Structure (A) and NMR spectrum (B) of UI-EP001. Human SKBR3 (Her2+) and HCC-1806 (TNBC) breast cancer cells were exposed to vehicle (untreated) or 100 µM of partial-PROTAC or E2p-PROTAC, Ul-EP001 for 16 hours. Cells were immunostained with GPER antibodies for 30 minutes and surface GPER was detected using goat anti-rabbit Alexa 594 IgG (red). Nuclei were countertained with DAPI (blue). (C).HA-GPER or HA-β1AR cells were treated with Ul-EP001 for the indicated times and immunoblotted with HA antibody (D) or immunostained for surface receptor (E). Total corrected red fluorescence (red) (TCRF) of treated and untreated HA-GPER or HA-β1AR cells was measured by subtracting cell background. […] Data not shown, no difference in surface GPER expression is measured in cells similarly treated with free 17β-E2.
To screen GPER-PROTACs, a GPER binding assay that measures a high-affinity (Kd= 2.7 nm), limited capacity, displaceable, single binding site specific for estrogens in plasma membranes of human SKBR3 breast cancer cells that express GPER but lack nuclear ER may be used (Thomas et al., 2005). GPER undergoes an uncommon mechanism of endocyosis that requires neither receptor phosphorylation, interaction with β--arrestin nor lysosomal activity. […]

GPER [1] = target: T2, GPER (Homo sapiens, UniProt Q99527); assay: Immunostaining of surface and intracellular GPER in SKBR3 cells; conditions: SKBR3, 100 uM, 1 hour
HiBiT-GPER = HiBiT-GPER (Homo sapiens, UniProt Q99527); assay: Nano-BiT binary luminescence complementation, transfected HEK-293 cells, total receptor; assay type: cell-based
Procedure: FIG. 26. […] HEK-293 cells (ERα^-, GPER^-) were transiently transfected with 50 ng HiBiT-GPER or HiBiT-ER plus pcDNA3.1(+) zeo carrier plasmid. […] (C) Histogram depicting total HiBiT-GPER and HiBiT-ER following a 1-hour treatment at […] drug or control. […] Results shown represent the mean ± S.E. of three independent experiments.
FIG. 28. […] Total receptor was then measured by binary luminescence complementation in detergent-permeabilized cells. […] Total receptor was then quantified by binary luminescence complementation. Representative luminescence data and mean values and SDs derived from three independent experiments are shown.
Transient transfections and binary Nano-Bit ™ luminescence assays. Total HiBiT-tagged GPER or ER estrogen receptors were detected in detergent-permeabilized cells by binary luminescence complementation with recombinant LgBit and substrate using the Nano-Glo HiBiT Extracellular Detection system kit (Promega Corporation, Madison, Wl). In brief, HEK293 cells (0.75 × 10^6) were seeded in 35 mm tissue culture dishes and 24 hours later were transiently transfected with 50 ng of HiBiT-GPER or HiBiT-ERa and 950 ng of pcDNA3.1(+) zeo carrier plasmid using Lipofectamine 2000 (Invitrogen, Carlsbad, CA). The next day transfected cells were harvested by trypsinization and seeded at a density of 10^4 cells/well in 96-well poly-L-lysine-coated Greiner white-bottomed microplates. On the following day, cell culture media was aspirated and replaced with 100 µL of serum-free PRF-DF12 containing E2-PROTAC, partial-PROTAC, or vehicle at various concentrations and for indicated time intervals at 37° C. […] Following treatment, total HiBiT-tagged receptor was measured in cells which were permeabilized in 0.05% Triton X-100 using HiBiT complementation reagent consisting of LgBiT protein and Nano-Gio® HiBiT substrate. Luminescence was measured using the Infinite 200 PRO multimode microplate reader from Tecan (Raleigh, NC) and reported as Relative Luminescent Units (RLU). All samples were measured in triplicate and expressed as the mean value plus or minus standard deviation.

GPER [2] = target: T2, GPER; assay: Competitive binding assay in intact SKBR3 cells with E2-FITC as fluoro-tracer (flow cytometry); parameters: endogenous in cells; host or cells: SKBR3 human breast carcinoma cells (ATCC)
HCC 1806 and SKBR3 cells = assay: Survivability of breast cancer cells (Example 1); conditions: HCC 1806 and SKBR3, 24 hours of treatment
[3] = target: T3, HA-GPER (recombinant GPER) (Homo sapiens, UniProt Q99527); assay: Surface receptor immunostaining / HA immunoblot in HA-GPER cells (Example 1); assay type: cell-based; conditions: 100 uM, 16 hr
T3 construct: expressed in transfected cells

HA-CXCR4 = HA-CXCR4 (Homo sapiens, UniProt P61073); assay: Immunofluorescence with HA antibody, stably transfected HEK293 cells; assay type: cell-based; conditions: 100 µM, 1 hour

Cc1ncsc1-c1ccc(CNC(=O)C2CC(O)CN2C(=O)C(NC(=O)COCCOCCOCCOCC(=O)OC2CCC3C4CCc5cc(O)ccc5C4CCC23C)C(C)(C)C)cc1 (stereo not shown) [UI-EP001]
expression of native GPER (native GPER): downmodulates the expression of native GPER
plasma membrane and total GPER (GPER [1]): reduced plasma membrane and total GPER
reduction in expression level of recombinant GPER (HiBiT-GPER; 100 µM, as early as 1 h): 50%
DC50 (HiBiT-GPER; 1 hour treatment, detergent-permeabilized cells, read-out: DC50 (concentration required for 50% protein degradation), GPER): 100 µM
change of HiBiT-GPER (HiBiT-GPER; increasing doses, 1 hour, partial PROTAC 100 µM): dose-dependent decrease
RBA%, GPER (GPER [2]; IC50 of 17β-E2 divided by IC50 of test compound): 330%
Kd (GPER [2]; intact SKBR3 cells, E2-FITC, read-out: binding dissociation constant (Kd), GPER): ~0.03 µM
survivability compared to partial PROTAC (HCC 1806 and SKBR3 cells): lower survivability
surface recombinant GPER / HA-GPER expression [3]: causes downmodulation of surface recombinant GPER; also recorded: Significant degradation of GPER was observed
off-target degradation of HA-CXCR4 (HA-CXCR4): without detectable off-target degradation
